Measurements taken from PubChem BioAssay (NCI).
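Results reflect a 48-hour exposure of cells in 96-well plates to compound at five concentrations. At the TGI there is no net growth.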

How the values were obtained:
Experiment in all cases: DTP human tumour cell line panel, 48 h
NCI-H23 lung = tested on: NCI-H23 lung
HL-60(TB) leukemia = tested on: HL-60(TB) leukemia
OVCAR-3 ovarian = tested on: OVCAR-3 ovarian
RPMI-8226 leukemia = tested on: RPMI-8226 leukemia
CCRF-CEM leukemia = tested on: CCRF-CEM leukemia
HCT-116 colon = tested on: HCT-116 colon
MCF7 breast = tested on: MCF7 breast
EKVX NSCLC = tested on: EKVX NSCLC
M14 melanoma = tested on: M14 melanoma
KM12 colon = tested on: KM12 colon
HCT-15 colon = tested on: HCT-15 colon
PC-3 prostate = tested on: PC-3 prostate
CAKI-1 renal = tested on: CAKI-1 renal
SF-268 CNS = tested on: SF-268 CNS
UO-31 renal = tested on: UO-31 renal
LOX IMVI melanoma = tested on: LOX IMVI melanoma
COLO 205 colon = tested on: COLO 205 colon
SK-MEL-2 melanoma = tested on: SK-MEL-2 melanoma
K-562 leukemia = tested on: K-562 leukemia
A498 renal = tested on: A498 renal
MOLT-4 leukemia = tested on: MOLT-4 leukemia
U251 CNS = tested on: U251 CNS
SK-OV-3 ovarian = tested on: SK-OV-3 ovarian
NCI-H460 lung = tested on: NCI-H460 lung
MDA-MB-435 = tested on: MDA-MB-435
OVCAR-8 ovarian = tested on: OVCAR-8 ovarian
SF-295 CNS = tested on: SF-295 CNS
HOP-62 NSCLC = tested on: HOP-62 NSCLC
786-0 renal = tested on: 786-0 renal
SK-MEL-28 melanoma = tested on: SK-MEL-28 melanoma
MDA-MB-231 breast = tested on: MDA-MB-231 breast
SN12C renal = tested on: SN12C renal
OVCAR-5 ovarian = tested on: OVCAR-5 ovarian
UACC-62 melanoma = tested on: UACC-62 melanoma
HOP-92 NSCLC = tested on: HOP-92 NSCLC
NCI/ADR-RES ovarian = tested on: NCI/ADR-RES ovarian
SF-539 CNS = tested on: SF-539 CNS
A549 NSCLC = tested on: A549 NSCLC
ACHN renal = tested on: ACHN renal
HT29 colon = tested on: HT29 colon
UACC-257 melanoma = tested on: UACC-257 melanoma
OVCAR-4 ovarian = tested on: OVCAR-4 ovarian
TK-10 renal = tested on: TK-10 renal
SNB-75 CNS = tested on: SNB-75 CNS
BT-549 breast = tested on: BT-549 breast
T-47D breast = tested on: T-47D breast
HCC-2998 colon = tested on: HCC-2998 colon
SW-620 colon = tested on: SW-620 colon
SNB-19 CNS = tested on: SNB-19 CNS
NCI-H226 lung = tested on: NCI-H226 lung
RXF 393 renal = tested on: RXF 393 renal
SK-MEL-5 melanoma = tested on: SK-MEL-5 melanoma
DU-145 prostate = tested on: DU-145 prostate

Measured: TGI

O=c1[nH]c(=O)c2ncn(-c3ccc([N+](=O)[O-])cn3)c2[nH]1
> 100 µM: all assays above
